Drawing on EP2662361A1, “Pyrazol indanyl carboxamides” (Bayer CropScience AG, priority 2012, dated 2013), this text covers chromatographic logP for six molecules.

This series can be described thus: physchem. The series is classed as physicochemical. As to conditions: reversed-phase c18 hplc, pH 2.7. On the procedure: The logP values were measured in accordance with EEC Directive 79/831 Annex V.A8 by HPLC (High Performance Liquid Chromatography) using reversed-phase columns (C 18) by the following methods: • [a] The LC-MS determination in the acidic range is effected at pH 2.7 with 0.1% aqueous formic acid and acetonitrile (contains 0.1 % formic acid) as eluents; linear gradient from 10 % acetonitrile to 95 % acetonitrile.

`Cn1cc(C(=O)Nc2cccc3c2CC(O)C3)c(C(F)F)n1` (stereo not drawn) [compound 1] had a chromatographic logP of 1.42.
The same measure for `CC(C)OC1Cc2cccc(NC(=O)c3cn(C)nc3C(F)F)c2C1` (stereo not drawn) [compound 2]: 2.71; for `CC(C)C1Cc2cccc(NC(=O)c3cn(C)nc3C(F)F)c2C1` (stereo not drawn) [compound 3]: 3.77.
Then `CC(C)CC1Cc2cccc(NC(=O)c3cn(C)nc3C(F)F)c2C1` (stereo not drawn) [compound 4], with 4.14; and `CC1c2cccc(NC(=O)c3cn(C)nc3C(F)F)c2CC1(C)C` (stereo not drawn) [compound 5], with 3.53; and `CC1Cc2c(NC(=O)c3cn(C)nc3C(F)F)cccc2C1(C)C` (stereo not drawn) [compound 6], with 3.55.

In general, chromatographic logP refers to a lipophilicity value derived from retention on a column. A lower chromatographic logP goes with lower lipophilicity.
